From patent publication US20230099031A1, “BIFUNCTIONAL AGENTS FOR PROTEIN RECRUITMENT AND/OR DEGRADATION” (Orionis Biosciences, Inc., priority 2019, published 2023)
Where a name gives a salt, the structure may show the parent alone.

target: T1, CRBN (Homo sapiens, UniProt Q96SW2); assay: Competition Assay: MAPPIT-like, competition with trimethoprim-lenalidomide hybrid ligand for binding to CRBN in HEK293T cells; type: cell-based; details: HEK293T cells, 300 nM trimethoprim-lenalidomide hybrid ligand, luciferase 24 hours after compound treatment; read-out: Competition IC50
T1 construct: expressed in transfected cells; host or cells: HEK293T
Excerpt: A bait protein (protein A) is expressed as a fusion protein in which it is genetically fused to an engineered intracellular receptor domain of the leptin receptor, which is itself fused to the extracellular domain of the erythropoietin (Epo) receptor. Binding of Epo ligand to the EpoR component results in activation of receptor-associated intracellular JAK2. However, activated JAK2 cannot activate the leptin receptor to trigger STAT3 binding and its phosphorylation because its tyrosine residues, normally phosphorylated by activated JAK2, have been mutated. Reconstitution of a JAK2 phosphorylatable STAT3 docking site is instead created through interaction of a protein B with protein A, whereby protein B is fused to a cytoplasmic domain of the gp130 receptor (which now harbors appropriate tyrosine resides recognized by the activated JAK2 kinase). Thus, physical interaction of protein A with protein B reconstitutes and Epo triggers JAK2-STAT3 signaling pathway activation. Activation of STAT3 can be monitored by introduction of a STAT3-responsive reporter gene, including a luciferase-encoding gene or a gene encoding a fluorescent marker such as GFP or some other type of fluorescent protein (EGF etc.). In this manner, the MAPPIT assay provides a versatile assay to assess such recombinant protein-protein interactions, or compound- or hybrid ligand-induced protein-protein interactions, in intact cells.
Formation of the complex results in activation of a STAT-responsive luciferase reporter gene. That signal is set to 100% luciferase activity. In a separate sample set up, cells are prepared in the same manner but, in addition, co-incubated with a test compound whose interaction with CRBN is investigated. […] Increasing concentrations of test compound are assessed to determine CRBN binding efficiency as determined in this type of ligand competition experiment in living cells. Specificity of signal inhibition is assessed by a parallel experimental set up in which test compound effect is assessed for inhibition of signal generated by a control gp130 fusion protein (CTRL) that directly binds to the DHFR-fusion protein in the absence of hybrid ligand (i.e. a direct interaction of the proteins).
In more detail, HEK293T cells are cultured in Dulbecco's modified Eagle's medium supplemented with 10% fetal calf serum, incubated at 37° C., 8% CO2. […] Data points represent the average luciferase activity of triplicate samples derived from cells treated with leptin+test compound for the REM2 control (CTRL) or cells treated with leptin+hybrid ligand+test compound (CRBN) relative to leptin (CTRL) or leptin+hybrid ligand (CRBN) only treated samples (the signals obtained in absence of added test compound for both cases is set at 100% of luciferase activity on y-axis). Error bars represent standard deviations. Curves are fit using 4-parameter nonlinear regression in […] PRISM software

| Compound | IC50 [µM] |
| --- | --- |
| CC/C(=C(\c1ccccc1)c1ccc(OCCN(C)CC(=O)NCCNC(=O)COc2cccc3c2CN(C2CCC(=O)NC2=O)C3=O)cc1)c1ccccc1 (stereo not shown) [Compound 5.56] | 5.8 |
| C#CCOCCOCCOCCNC(=O)COc1ccc2nc(C(=O)Nc3ccc4c(c3)C(=O)N(C3CCC(=O)NC3=O)C4)ccc2c1 (stereo not shown) [Compound 5.03] | 0.873 |
| C#CCOCCOCCOCCOCC(=O)Nc1cc(Br)c2c(c1OC)C(=O)N(C1CCC(=O)NC1=O)C2 (stereo not shown) [Compound 5.04] | 0.189 |

same assay, conditions: protocol and reagents of Example 1; read-out: IC50 Competition

| Compound | IC50 [µM] |
| --- | --- |
| O=C1CC/C(=C/c2ccccc2)C(=O)N1 [Compound C68121, (3Z)-3-benzylidenepiperidine-2,6-dione] | 6.5 |
| N#Cc1ccc(Nc2ccc3c(c2)C(=O)N(C2CCC(=O)NC2=O)C3)nn1 (stereo not shown) [Compound C80389, 6-[[2-(2,6-dioxo-3-piperidyl)-3-oxo-isoindolin-5-yl]amino]pyridazine-3-carbonitrile] | 0.645 |
| O=C1CCC(N2Cc3ccc(NC(=O)c4ccc5ccccc5n4)cc3C2=O)C(=O)N1 (stereo not shown) [Compound C80392, N-[2-(2,6-dioxo-3-piperidyl)-3-oxo-isoindolin-5-yl]quinoline-2-carboxamide] | 2.05e-05 |
| COC1c2ccccc2C(=O)N1C1CCC(=O)NC1=O (stereo not shown) [Compound C56572, 3-(1-methoxy-3-oxo-isoindolin-2-yl)piperidine-2,6-dione] | 8.61 |
| O=C1CCC(N2Cc3ccc(NCC(=O)N4CCc5ccccc5C4)cc3C2=O)C(=O)N1 (stereo not shown) [Compound C95329] | 10.3 |
| O=C1CCC(N2Cc3ccc(NCC(=O)N4CCCCC4)cc3C2=O)C(=O)N1 (stereo not shown) [Compound C12581] | 10 |
| O=C(O)CNc1ccc2c(c1)C(=O)N(C1CCC(=O)NC1=O)C2 (stereo not shown) [Compound C47997, 2-[[2-(2,6-dioxo-3-piperidyl)-3-oxo-isoindolin-5-yl]amino]acetic acid] | 9.1 |
| O=C1CCC(N2Cc3ccc(NCC(=O)N4Cc5ccccc5C4)cc3C2=O)C(=O)N1 (stereo not shown) [Compound C95330, 3-[6-[(2-isoindolin-2-yl-2-oxo-ethyl)amino]-1-oxo-isoindolin-2-yl]piperidine-2,6-dione] | 0.03 |
| CC1CN(C(=O)CNc2ccc3c(c2)C(=O)N(C2CCC(=O)NC2=O)C3)CCO1 (stereo not shown) [Compound C12586, 3-[6-[[2-(2-methylmorpholin-4-yl)-2-oxo-ethyl]amino]-1-oxo-isoindolin-2-yl]piperidine-2,6-dione] | 0.383 |
| O=C1CCC(N2Cc3ccc(N4CCNC4=O)cc3C2=O)C(=O)N1 (stereo not shown) [Compound C84971, 3-[1-oxo-6-(2-oxoimidazolidin-1-yl)isoindolin-2-yl]piperidine-2,6-dione] | 1.31 |
| O=C1CC=CC(C(=O)NC2CCC(=O)NC2=O)=N1 (stereo not shown) [Compound C98696, N-(2,6-dioxo-3-piperidyl)-2-oxo-3H-pyridine-6-carboxamide] | 9.34 |
| Cn1ncc2c(Nc3ccc4c(c3)CN(C3CCC(=O)NC3=O)C4=O)ncnc21 (stereo not shown) [Compound C80374, 3-[5-[(1-methylpyrazolo[3,4-d]pyrimidin-4-yl)amino]-1-oxo-isoindolin-2-yl]piperidine-2,6-dione] | 16.6 |
| O=C1CCC(N2Cc3cccc(-c4ccccc4)c3C2=O)C(=O)N1 (stereo not shown) [Compound C48020, 3-(1-oxo-7-phenyl-isoindolin-2-yl)piperidine-2,6-dione] | 0.546 |
| O=C1CCC(N2Cc3ccc(Nc4cnc5ccccc5n4)cc3C2=O)C(=O)N1 (stereo not shown) [Compound C80386, 3-[1-oxo-6-(quinoxalin-2-ylamino)isoindolin-2-yl]piperidine-2,6-dione] | 0.0674 |
| NC1Cc2ccccc2C1=O (stereo not shown) [Compound C75987, 2-aminoindan-1-one; hydrochloride] | 11.2 |
| CC(C)(C)OC(=O)CC1c2ccccc2C(=O)N1C1CCC(=O)NC1=O (stereo not shown) [Compound C98053, t-butyl 2-[2-(2,6-dioxo-3-piperidyl)-3-oxo-isoindolin-1-yl]acetate] | 5.77 |

| Compound | IC50 [µM] |
| --- | --- |
| COc1ccc(Br)c2c1C(=O)N(C1CCC(=O)NC1=O)C2 (stereo not shown) [Compound C74668, 3-(4-bromo-7-methoxy-1-oxo-isoindolin-2-yl)piperidine-2,6-dione] | 0.00189 |
| O=C1Cc2ccccc2C(=O)N1 [Compound C15352, 4H-isoquinoline-1,3-dione] | 10.3 |
| CC(=O)NCC(=O)Nc1ccc2c(c1)C(=O)N(C1CCC(=O)NC1=O)C2 (stereo not shown) [Compound C84967, 2-acetamido-N-[2-(2,6-dioxo-3-piperidyl)-3-oxo-isoindolin-5-yl]acetamide] | 3.15 |
| Cc1cccc2c1C(=O)N(C1CCC(=O)NC1=O)C2 (stereo not shown) [Compound C28661, 3-(7-methyl-1-oxo-isoindolin-2-yl)piperidine-2,6-dione] | 0.654 |
| Cn1ncc2c(Nc3ccc4c(c3)C(=O)N(C3CCC(=O)NC3=O)C4)ncnc21 (stereo not shown) [Compound C80383, 3-[6-[(1-methylpyrazolo[3,4-d]pyrimidin-4-yl)amino]-1-oxo-isoindolin-2-yl]piperidine-2,6-dione] | 0.148 |
| CC1Cc2ccccc2N1C(=O)CNc1ccc2c(c1)C(=O)N(C1CCC(=O)NC1=O)C2 (stereo not shown) [Compound C95336, 3-[6-[[2-(2-methylindolin-1-yl)-2-oxo-ethyl]amino]-1-oxo-isoindolin-2-yl]piperidine-2,6-dione] | 11.9 |
| Cc1nc(N(C)C)cc2c1C(=O)N(C1CCC(=O)NC1=O)C2=O (stereo not shown) [Compound C64376, 6-(dimethylamino)-2-(2,6-dioxo-3-piperidyl)-4-methyl-pyrrolo[3,4-c]pyridine-1,3-dione] | 3.95 |
| COc1ccc(C2c3ccccc3C(=O)N2C2CCC(=O)NC2=O)cc1 (stereo not shown) [Compound C11892, 3-[1-(4-methoxyphenyl)-3-oxo-isoindolin-2-yl]piperidine-2,6-dione] | 8.16 |
| Cc1cccc2c1S(=O)(=O)N(C1CCC(=O)NC1=O)C2=O (stereo not shown) [Compound C75688, 3-(7-methyl-1,1,3-trioxo-1,2-benzothiazol-2-yl)piperidine-2,6-dione] | 14.7 |
| CN(CC1CC1)C(=O)CNc1ccc2c(c1)C(=O)N(C1CCC(=O)NC1=O)C2 (stereo not shown) [Compound C95338, N-(cyclopropylmethyl)-2-[[2-(2,6-dioxo-3-piperidyl)-3-oxo-isoindolin-5-yl]amino]-N-methyl-acetamide] | 0.0321 |
| CN(C)C(=O)CNc1ccc2c(c1)C(=O)N(C1CCC(=O)NC1=O)C2 (stereo not shown) [Compound C84964, 2-[[2-(2,6-dioxo-3-piperidyl)-3-oxo-isoindolin-5-yl]amino]-N,N-dimethyl-acetamide] | 0.266 |
| O=C1CCC(N2C(=O)C3CCCCC3C2=O)C(=O)N1 (stereo not shown) [Compound C24191, 2-(2,6-dioxo-3-piperidyl)-3a,4,5,6,7,7a-hexahydroisoindole-1,3-dione] | 17.7 |
| CC(=O)Nc1cccc2c1C(=O)N(C1CCC(=O)NC1=O)C2 (stereo not shown) [Compound C29457, N-[2-(2,6-dioxo-3-piperidyl)-3-oxo-isoindolin-4-yl]acetamide] | 10.4 |
| NCc1ccc2c(c1)C(=O)N(C1CCC(=O)NC1=O)C2 (stereo not shown) [Compound C66979, 3-[6-(aminomethyl)-1-oxo-isoindolin-2-yl]piperidine-2,6-dione] | 0.633 |
| O=C1CCC(N2Cc3cc(Nc4ncnc5sccc45)ccc3C2=O)C(=O)N1 (stereo not shown) [Compound C80370, 3-[1-oxo-5-(thieno[2,3-d]pyrimidin-4-ylamino)isoindolin-2-yl]piperidine-2,6-dione] | 0.0109 |
